Results taken from a melting point compilation (Tetko et al.; mined from patent text by program, amines drawn as free bases though some values may be those of a salt).

For `O=C(Cc1c[nH]c2ccccc12)NCCN1CCC(Nc2nc3ccccc3n2Cc2ccc(F)cc2)CC1`, the melting point was 194 °C.
`O=C1c2ccccc2C(=O)N1C(CCCBr)c1ccccc1` (stereo unspecified) gave a melting point of 88 to 91 °C.
In the case of `Cc1ccc(CCN2CCN(c3noc4ccccc34)CC2)c2c1C(C)(C)CC(=O)N2`, the melting point is reported as 170 °C.
Work on `Cn1cc(-c2ccnnc2)ccc1=O` yielded a melting point of over 250 °C.
In the case of `Cc1[nH]c(=O)c(C#N)cc1-c1ccccc1OCC(C)C(=O)O` (stereo unspecified), the melting point is reported as 228 to 230 °C.
`CC(=O)OCC1OC(n2ccc3c(F)cccc32)C(OC(C)=O)C(OC(C)=O)C1OC(C)=O` (stereo unspecified) showed a melting point of 132 to 135 °C.
In the case of `CC(C)Oc1ccc2c(n1)C(C(=O)c1cccs1)C(=O)N2C(N)=O` (stereo unspecified), the melting point is reported as 194 to 196 °C.
For `N#Cc1sc2c(Cl)cccc2c1Cl`, the melting point was 124 to 128 °C.
Compound `CCCCc1cc(=O)c2ccccc2[nH]1` has a melting point of 140 °C.
For `N#CC1=CC(CF)(CF)Oc2ccc([N+](=O)[O-])cc21`, the melting point was 136 to 137 °C.
In the case of `CCOC(=O)c1cn(Cc2ccccc2)nc1OCc1ccc(OCc2nc(-c3ccco3)oc2C)c(Cl)c1`, the melting point is reported as 153 to 154 °C.
Compound `CC(=O)N1c2cc(Cl)cc(Cl)c2C(=O)CC1C(=O)O` (stereo unspecified) has a melting point of 212 to 213 °C.
With `O=C(c1cccc(N2CC(=O)N(S(=O)(=O)c3ccc(Cl)cc3)C2=O)c1)N1CCOCC1` the melting point was 248 to 253 °C.
Compound `NS(=O)(=O)c1ccc(-n2nc(CO)cc2-c2ccc(Cl)cc2)cc1` has a melting point of 192 to 194 °C.
Work on `Cc1nc(OCC(F)(F)F)c([N+](=O)[O-])c(N2CCC(c3ccccc3)CC2)n1` yielded a melting point of 114 to 117 °C.
With `CS(=O)(=O)c1ccc(C2=C(c3ccc(F)cc3)CC(CF)(CF)C2)cc1` the melting point was 134 to 135 °C.
`COc1ccc(CC#N)c(Cl)c1Cl` showed a melting point of 118 to 119 °C.
For `CCOC(=O)C(C)Oc1ccc(Oc2nc3ccccc3cc2Cl)cc1` (stereo unspecified), the melting point was 86 °C.
With `C#CCN1C(=O)C(C)Oc2cc(Cl)c(-c3ccc(C(F)(F)F)n(C)c3=O)cc21` (stereo unspecified) the melting point was 203 to 204 °C.
Compound `N#CN=C(Nc1cnc(Cl)c(N)c1)Oc1ccccc1` has a melting point of 219 to 220 °C.
`CCOc1csc(C)c1C1OC(=O)NC1=O` (stereo unspecified) gave a melting point of 136 to 138 °C.
`CC(C)(Oc1ccc(Cc2ccccc2)cc1)C(=O)O` showed a melting point of 130 °C.
`Cc1cc(SC2=C(O)CC(CCc3ccc(O)cc3)(CCc3ccc(O)cc3)OC2=O)c(C(C)(C)C)cc1OS(=O)(=O)N(C)C` showed a melting point of 139 °C.
Work on `CCOC(=O)Nc1ccc(C(c2ccccc2)n2ccnc2)cc1C=O` (stereo unspecified) yielded a melting point of 107 °C.
`CCc1cccc(C)c1NCc1nccc2c1nc(C)n2C` showed a melting point of 141 to 142 °C.
Compound `COc1nc2cccc(C(=O)O)c2n1Cc1ccc(-c2ccccc2-c2nnn[nH]2)cc1` has a melting point of 208 to 209 °C.
`COc1ccc(CCl)cc1OC` gave a melting point of 50 to 51 °C.
`CON1C(=O)CC2(CCN(C(=O)C3=C(C)NC(C)=C([N+](=O)[O-])C3c3ccccc3C(F)(F)F)CC2)C1=O` (stereo unspecified) gave a melting point of 261 to 263 °C.
Work on `O=S(=O)(c1cccs1)N(CCN1CCOCC1)c1cccc2cc(-c3nccs3)[nH]c12` yielded a melting point of 192 to 193 °C.
With `CC(C)Oc1cc(-n2c(=O)[nH]c(C(F)(F)C(F)(F)F)c(F)c2=O)c(F)cc1Cl` the melting point was 160 to 162 °C.
Compound `CNC(=S)C1(c2ccccc2)CCCCC1=O` (stereo unspecified) has a melting point of 86 °C.
For `CC(C)(C)OC(=O)CN1CCN(CC(=O)OC(C)(C)C)C1=O`, the melting point was 100 to 102 °C.
Work on `O=C(Nc1ccc(C(=O)O)cc1)OCc1nccn1-c1cc2cc(C(=O)O)c(=O)[nH]c2cc1Cl` yielded a melting point of 249 to 251 °C.
`Clc1ccc(Cn2c(-c3ccc4c(c3)OCO4)nc3ccccc32)s1` showed a melting point of 130 to 131 °C.
Work on `CC(C)(CCn1cnnc1)NCC(O)c1ccc(OCc2ccccc2)c(CO)c1` (stereo unspecified) yielded a melting point of 139 to 141 °C.
For `Cc1nc(-c2ccc(C#N)cc2)sc1C(=O)N1CCO[C@@](Cn2cncn2)(c2ccc(F)cc2F)[C@H]1C`, the melting point was 150 to 160 °C.
With `CC=C(Cc1ccccc1)NNC(=O)OC(C)(C)C` the melting point was 76 to 79 °C.
Work on `COCn1cncc1C[C@H](NC(=O)C(Cc1cccc2ccccc12)Cc1cccc2ccccc12)C(=O)OC` yielded a melting point of 182 to 185 °C.
`CC(=O)N(C)CCc1ccc(C(=O)O)cc1` showed a melting point of 149 to 151 °C.
For `COc1cc(C)nc(NC(=O)NS(=O)(=O)c2cccc3c2S(=O)(=O)C(C)C3)n1` (stereo unspecified), the melting point was 224 to 226 °C.
Work on `CCOC(=O)CCCCCn1c(=O)[nH]c2ccccc2c1=O` yielded a melting point of 103 to 104 °C.
`O=C(CCCCBr)NC(=O)C1CC1` showed a melting point of 114 to 115 °C.
Work on `Fc1ccc(-c2nc(SCSc3nc(-c4ccc(F)cc4)c(-c4ccc(F)cc4)[nH]3)[nH]c2-c2ccc(F)cc2)cc1` yielded a melting point of 265 °C.
Compound `CCN(CC)C(=O)c1ccc2cc(C(=O)O)ccc2c1` has a melting point of 122 to 124 °C.
`CCN(CC)c1ccc(C2(c3c(C)n(CC)c4ccccc34)OC(=O)c3ccccc32)c(OC(C)C)c1` (stereo unspecified) showed a melting point of 193 °C.
`COc1ccc(S(=O)(=O)C(C=CC(C)C)(CC=C(C)C)C(=O)NO)cc1` (stereo unspecified) showed a melting point of 93 to 96 °C.
In the case of `Nc1ccc2oc(-c3ccccc3)nc2c1`, the melting point is reported as 155 to 157 °C.
In the case of `CCOC(=O)c1cc(C)n(-c2cccc(S(C)(=O)=O)c2)c1-c1ccccc1`, the melting point is reported as 131 to 133 °C.
Work on `CC(=O)NCCCCCC(=O)Nc1ncccc1C(=O)c1ccc(Cl)cc1` yielded a melting point of 117 to 119 °C.
For `CCOP(=O)(CCN1CCC(N(C)S(=O)(=O)c2ccc(Nc3nccc(Nc4ccc(F)cc4)n3)cc2)CC1)OCC`, the melting point was 95 to 100 °C.
`CCCOc1ccccc1-c1ccc(C(=O)OC)c(=O)[nH]1` gave a melting point of 126 to 128 °C.
Compound `CCn1cc(-c2nc(C(N)=O)c(N)nc2-c2ccccc2)ccc1=O` has a melting point of over 250 °C.
With `COc1ccc(C2=NN(c3cccc(C(=O)O)c3)C(=O)C(C)(C)C2)cc1OC` the melting point was 165 to 167 °C.
For `CCOc1cc2cc(CO)nc(-c3ccc(Cl)c([N+](=O)[O-])c3)c2cc1OCC`, the melting point was 187 to 188 °C.
In the case of `CCC(=O)Nc1cc(S(=O)(=O)c2ccccc2)ccc1NC(=NC(=O)OC)NC(=O)OC`, the melting point is reported as 137 °C.
`N#Cc1ccccc1/C=C/C=O` gave a melting point of 107 to 110 °C.
With `c1cc(NC2=NCCO2)c2occc2c1` the melting point was 124 to 126 °C.
For `O=c1[nH]c2ccc([C@H]3CC[C@H](N(CCCc4ccc(F)cc4)Cc4ccoc4)CC3)cc2o1`, the melting point was 225 to 227 °C.
`Cc1ccc(S(=O)(=O)OC2=CC3COC(O3)C2=O)cc1` (stereo unspecified) showed a melting point of 81 to 86 °C.
`Nc1cc(-n2cccc2)ccc1Nc1cccc(-c2ccccn2)c1` gave a melting point of 135 to 140 °C.
For `Cc1c(C(F)(F)F)noc1NS(=O)(=O)c1cccc2ccccc12`, the melting point was 154 to 155 °C.
